# Measured values from paper PMC8544286, “Screening and Identification of a Novel Anti-tuberculosis Compound That Targets Deoxyuridine 5′-Triphosphate Nucleotidohydrolase” (Frontiers in Microbiology, 2021).
# Where two headings read alike, the source gives them in different places.
# What was measured:
# [1] = tested on: sensitive strain STB-FJ05349; test: Microplate alamar blue assay (MABA), STB-FJ05349; assay type: cell-based; conditions: Mycobacterium tuberculosis, STBFJ05349, 168 h
# [2] = tested on: M. tuberculosis standard strain H37Rv; test: Microplate alamar blue assay (MABA), H37Rv; assay type: cell-based; conditions: Mycobacterium tuberculosis, 168 h
# [3] = tested on: sensitive strain STB-FJ05060; test: Microplate alamar blue assay (MABA), STB-FJ05060; assay type: cell-based; conditions: Mycobacterium tuberculosis, STBFJ05060, 168 h
# [4] = target: M. tuberculosis dUTPase (Mt-dUTPase) (Mycobacterium tuberculosis, UniProt P9WNS5); assay type: biochemical
# human dUTPase [5] = target: T1, human dUTPase (Homo sapiens, UniProt P33316); test: Surface plasmon resonance (SPR), human dUTPase; assay type: binding; conditions: human dUTPase on CM5 chip
# in vitro = assay type: cell-based; conditions: 24 h, CCK-8
# Procedure: MRC-5, Vero E6, and Caco-2 cells were tested. […] Meanwhile, 2% DMSO was used as a negative control. After incubation for 24 h, 2-(2-methoxy-4-nitrophenyl)-3-(4-nitrophenyl)-5-(2,4-disulfophenyl)-2H-tetrazolium, monosodium salt (WST-8) was added. The experimental method referred to the kit instructions. All the experiments were repeated three times.
# human dUTPase [6] = target: T1, human dUTPase; test: biochemical
# [7] = STB-FJ05349, MABA, 7 days at 37°C, read-out: MIC
# [8] = H37Rv, MABA, 7 days at 37°C, read-out: MIC
# [9] = STB-FJ05060, MABA, 7 days at 37°C, read-out: MIC
# T1 sequence (P33316 other isoform, or with tags, fused parts or gaps): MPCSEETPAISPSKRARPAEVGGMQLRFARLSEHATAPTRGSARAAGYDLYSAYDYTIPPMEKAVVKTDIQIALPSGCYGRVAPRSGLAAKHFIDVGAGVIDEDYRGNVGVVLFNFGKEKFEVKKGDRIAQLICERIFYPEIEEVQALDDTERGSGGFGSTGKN
# Sequence of M. tuberculosis dUTPase (Mt-dUTPase) (P9WNS5 whole entry): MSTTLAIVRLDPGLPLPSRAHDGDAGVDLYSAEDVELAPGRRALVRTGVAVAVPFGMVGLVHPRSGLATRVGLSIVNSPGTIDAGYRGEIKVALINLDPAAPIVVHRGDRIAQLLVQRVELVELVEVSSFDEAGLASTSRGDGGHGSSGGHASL
smiles,measurement,setting,value
NNC(=O)c1ccncc1 [Isoniazid],MIC,[1]; [7],0.5 µg/mL
same,MIC,[2]; [8],0.25 µg/mL
same,MIC,[3]; [9],0.5 µg/mL
CO[C@H]1/C=C/O[C@@]2(C)Oc3c(C)c(O)c4c(O)c(c(/C=N/N5CCN(C)CC5)c(O)c4c3C2=O)NC(=O)/C(C)=C\C=C\[C@H](C)[C@H](O)[C@@H](C)[C@@H](O)[C@@H](C)[C@H](OC(C)=O)[C@@H]1C [Rifampicin],MIC,[1],0.5 µg/mL
same,MIC,[2]; H37RV,0.25 µg/mL
same,MIC,[3],0.5 µg/mL
O=c1ccn([C@H]2C[C@H](O)[C@@H](COC(c3ccccc3)(c3ccccc3)c3ccccc3)O2)c(=O)[nH]1 [Trt-dU],IC50,"[4]; compound pre-incubated with enzyme 1 h at room temperature, luminescence readout",1.04 ± 0.08 µM
same,IC50 (Mt-dUTPase),[4]; same IC50 printed in μg/ml,0.49 ± 0.02 µg/mL
C=CCn1c(/C=C/c2ccccc2)nc2ccccc21 [F0414],SPR binding to human dUTPase,human dUTPase [5],almost no RU signals
same,MIC,[1]; [7],4 µg/mL
same,MIC,[2]; [8],4 µg/mL
same,CC50,"in vitro; African green monkey, Vero E6 cells",> 200 µM
same,CC50,"in vitro; African green monkey, Vero E6 cells, approximate conversion of >200 μM",> 52 µg/mL
same,CC50,"in vitro; human, Caco2 cells",> 200 µM
same,CC50,"in vitro; human, Caco2 cells, approximate conversion of >200 μM",> 52 µg/mL
same,CC50,"in vitro; human, MRC-5 cells",> 200 µM
same,CC50,"in vitro; human, MRC-5 cells, approximate conversion of >200 μM",> 52 µg/mL
same,MIC,[3]; [9],4 µg/mL
same,IC50,human dUTPase [6]; luminescence readout,3.18 ± 0.96 µM
same,IC50,human dUTPase [6]; same IC50 printed in μg/mL,3.19 µM
